{"source": "PubChem BioAssay AID463206", "about": "(Broad Institute, 2010)", "note": "Calls of active or inactive are those of the source.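 The calls were made as follows: active = caspase luminescence falls with dose and the half-maximal concentration AC50 from the fitted curve is at or below a set limit; inconclusive = flat fit at 30 to 70% signal loss, or invalid fit; inactive = AC50 above the limit, or signal rises instead.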"}
{"system": "INS-1E cytokine-induced caspase-3/7, Caspase-Glo luminescence, 48 h", "test": "inhibitors of cytokine-induced caspase-3/7 activity, dose response, orthogonal assay for beta-cell apoptosis protection project, INS-1E rat cells, luminescence (AID 463206)"}
{"smiles": "COc1ccc(-n2c(-c3ccc(Br)cc3)c[n+]3c2CCCCC3)cc1", "AC50": "> 26 µM (inactive)"}
{"smiles": "COc1ccc(/C=C/C(=O)c2ccc([N+](=O)[O-])o2)cc1", "AC50": "> 26 µM (inactive)"}
{"smiles": "CCCCC(=O)N1C/C=C\\C(c2ccc(OC)cc2)N(Cc2ccc(F)cc2)C(=O)[C@H]1Cc1ccccc1", "note": "(some centres not stated)", "AC50": "> 26 µM (inactive)"}
{"smiles": "CNc1nc(N)c([N+](=O)[O-])c(Nc2cccc(F)c2)n1", "AC50": "> 26 µM (inactive)"}
{"smiles": "CCC(CO)Oc1cc(NCc2ccc(C(C)(C)C)cc2)c2ncn(C(C)C)c2c1", "note": "(configuration not stated)", "AC50": "> 26 µM (inactive)"}
{"smiles": "CCOC(=O)c1cccc(-[n+]2c(-c3ccccc3)cc(-c3ccccc3)cc2-c2ccccc2)c1", "AC50": "> 26 µM (inactive)"}
{"smiles": "CCCC(=O)NC(c1ccc(OC)cc1)c1ccc2cccnc2c1O", "note": "(configuration not stated)", "AC50": "> 26 µM (inactive)"}
{"smiles": "CN1/C(=C\\C=N\\NC(=O)c2ccc(O)cc2)C(C)(C)c2ccccc21", "AC50": "> 26 µM (inactive)"}
{"smiles": "O=C(C1CCC1)N1CCc2cc(S(=O)(=O)Nc3ccc4c(c3)OCCO4)ccc21", "AC50": "> 26 µM (inactive)"}
{"smiles": "Cc1ccccc1-c1cc(C(=O)Nc2sc(C)c(C)c2C(N)=O)c2ccccc2n1", "AC50": "> 26 µM (inactive)"}
{"smiles": "O=C(Nc1nc(-c2ccccn2)cs1)c1ccc([N+](=O)[O-])o1", "AC50": "> 26 µM (inactive)"}
{"smiles": "OC(CNC1CCCCC1)COCCOc1ccc(Br)cc1", "note": "(configuration not stated)", "AC50": "> 12 µM (inactive)"}
{"smiles": "Cc1[nH]c2ccccc2c1CN1CCN(c2ccccn2)CC1", "AC50": "> 26 µM (inactive)"}
{"smiles": "Cc1nc2ccccc2cc1OCc1ccc(F)cc1", "AC50": "> 26 µM (inactive)"}
{"smiles": "NC(=S)N/N=C/c1c(O)ccc2ccccc12", "AC50": "> 26 µM (inactive)"}
{"smiles": "CCC(=NNC(=O)c1ccc2c(c1)nc(C)n2CC)c1cc(F)ccc1O", "AC50": "> 26 µM (inactive)"}
{"smiles": "Cc1cc(C)cc(OCCCn2ccnc2)c1", "AC50": "> 26 µM (inactive)"}
{"smiles": "O=C(NCC(c1ccco1)N1CCCC1)c1ccc(Cl)c(S(=O)(=O)N2CCc3ccccc32)c1", "note": "(configuration not stated)", "AC50": "> 26 µM (inactive)"}
{"smiles": "CCc1cc(CNC(=O)c2ccc3nc(Cc4ccc(OC)c(OC)c4)oc3c2)on1", "AC50": "> 26 µM (inactive)"}
{"smiles": "Cc1ccc(C(=O)N/C(=C\\c2ccc(-c3ccc(Cl)cc3)o2)C(=O)NCCCN(C)C)cc1", "AC50": "11.9 µM"}
{"smiles": "COc1ccc(C2/C=C\\CN(C(=O)c3ccccc3)[C@H](Cc3ccccc3)C(=O)N2Cc2ccc(F)cc2)cc1", "note": "(some centres not stated)", "AC50": "> 26 µM (inactive)"}
{"smiles": "COCCC1CCCCN1C(=O)c1cc(COc2ccc(-n3cncn3)cc2)on1", "note": "(configuration not stated)", "AC50": "> 26 µM (inactive)"}
{"smiles": "CNC(=O)c1cc(Oc2ccc(NC(=O)Nc3ccc(Cl)c(C(F)(F)F)c3)cc2)ccn1", "AC50": "> 26 µM (inactive)"}
{"smiles": "Cc1c2ccncc2c(C)c2c1[nH]c1ccccc12", "AC50": "1.11 µM"}
{"smiles": "CC1CCN(Cc2c(C(=O)N/N=C/c3cc(Cl)ccc3O)nnn2-c2nonc2N)CC1", "AC50": "> 26 µM (inactive)"}
{"smiles": "O=S1(=O)C=C(Sc2nnc(-c3ccccc3)o2)c2ccccc21", "AC50": "> 26 µM (inactive)"}
{"smiles": "O=C(N/N=C/c1ccc[nH]1)c1ccc(COc2cccc3cccnc23)cc1", "AC50": "> 26 µM (inactive)"}
{"smiles": "CCCCCCc1cc2cc(C(=O)Nc3ccccc3)c(=O)oc2cc1O", "AC50": "> 26 µM (inactive)"}
{"smiles": "O=C(CCl)N(c1ccccc1)C1CCCCC1", "AC50": "> 26 µM (inactive)"}
{"smiles": "Cc1sc2ncnc(N3CCN(S(=O)(=O)c4ccc(C(C)(C)C)cc4)CC3)c2c1C", "AC50": "> 26 µM (inactive)"}
{"smiles": "O=[N+]([O-])c1ccc(N2CCN(CCOc3nonc3-c3ccccc3)CC2)c(Cl)c1", "AC50": "> 26 µM (inactive)"}
{"smiles": "O=C(Nc1ccc(N2CCN(C(=O)c3ccc(Cl)cc3)CC2)cc1)c1cccnc1", "AC50": "> 26 µM (inactive)"}
{"smiles": "COc1ccccc1N1CC(C)(C)C(=O)N(C(=O)c2ccc(Cl)cc2)C1=S", "AC50": "> 12 µM (inactive)"}
{"smiles": "C/C(=N\\NC(=O)c1cc(Br)ccc1O)c1ccccn1", "AC50": "> 26 µM (inactive)"}
{"smiles": "CCN(CC)c1ccc(/C=N/N(c2ccccc2)c2ccccc2)c(O)c1", "AC50": "> 26 µM (inactive)"}
{"smiles": "COc1cnc(-c2ccccn2)nc1Sc1ccccc1Cl", "AC50": "> 26 µM (inactive)"}
{"smiles": "COc1ccc2c(c1)C(=O)[C@@H](O)[C@H](c1ccc(OC)c(Br)c1)O2", "AC50": "> 26 µM (inactive)"}
{"smiles": "Cc1ccc(S(=O)(=O)N2CCCCC2c2cccnc2)c(C)c1C", "note": "(configuration not stated)", "AC50": "> 26 µM (inactive)"}
{"smiles": "CCOC(=O)C1=C(c2ccc(OC)cc2)C(=O)c2ccccc2C1=O", "AC50": "> 26 µM (inactive)"}
{"smiles": "CC(=O)C1=NN(c2ccccc2)C(c2cccs2)N1c1ccc(N(C)C)cc1", "note": "(configuration not stated)", "AC50": "> 26 µM (inactive)"}
{"smiles": "Cc1nnc(N/N=C/c2ccccn2)[nH]c1=O", "AC50": "> 26 µM (inactive)"}
{"smiles": "CS(=O)(=O)c1ncc(Cl)c(C(=O)Nc2ccc(OC(F)F)cc2)n1", "AC50": "> 26 µM (inactive)"}
{"smiles": "O=C(Nc1nc(-c2ccccn2)cs1)c1ccc(F)c(S(=O)(=O)N2CCOCC2)c1", "AC50": "> 26 µM (inactive)"}
{"smiles": "Cc1ccc(-c2cn(-c3ccccc3)c3[n+]2CCCS3)cc1", "AC50": "> 26 µM (inactive)"}
{"smiles": "COC(=O)c1c(C)oc2ccc(N(C(=O)c3ccncc3)S(=O)(=O)c3ccc4ccccc4c3)cc12", "AC50": "> 26 µM (inactive)"}
{"smiles": "COc1ccc(NC(=O)CN(C)C(=O)/C=C/c2ccc(S(=O)(=O)N3CCCCCC3)cc2)cc1", "AC50": "> 26 µM (inactive)"}
{"smiles": "COc1ccc(C(NC(=O)C(C)C)c2ccc3cccnc3c2O)cc1", "note": "(configuration not stated)", "AC50": "> 26 µM (inactive)"}
{"smiles": "CC1CCN(Cc2c(C(=O)N/N=C/c3cc(Br)ccc3O)nnn2-c2nonc2N)CC1", "AC50": "> 26 µM (inactive)"}
{"smiles": "O=C(O)CCCC(=O)Nc1ccc(C(=O)NCc2cccnc2)cc1", "AC50": "> 26 µM (inactive)"}
{"smiles": "C=C1C(=O)O[C@H]2C[C@@H](C)[C@@H]3C=CC(=O)[C@@]3(C)C[C@H]12", "AC50": "2.83 µM"}
{"smiles": "Cc1ccc(-c2cc(-c3ccc(C)cc3)[n+](-c3ccc(C(=O)[O-])cc3)c(-c3ccc(C)cc3)c2)cc1", "AC50": "> 26 µM (inactive)"}
{"smiles": "O=C(/C(=C/c1cccc(Cl)c1)c1nc2ccccc2[nH]1)c1ccccc1", "AC50": "> 26 µM (inactive)"}
{"smiles": "O=C(/C=C/NNC(=O)c1ccccc1)c1ccc([N+](=O)[O-])cc1", "AC50": "> 26 µM (inactive)"}
{"smiles": "Cc1c(C)c2cccnc2c2ncccc12", "AC50": "> 26 µM (inactive)"}
{"smiles": "Cc1cccc(/C=N\\NC(=O)c2ccc(Cl)cc2)c1O", "AC50": "> 26 µM (inactive)"}
{"smiles": "Clc1ccc(C[n+]2c(-c3ccccc3)cc(-c3ccccc3)cc2-c2ccccc2)cc1", "AC50": "> 12 µM (inactive)"}
{"smiles": "Cc1ccc(OCCN2CCN(c3ncnc4sc(C)c(C)c34)CC2)cc1", "AC50": "> 26 µM (inactive)"}
{"smiles": "Cc1ccc2c(c1)nnn2C1CCN(S(=O)(=O)c2ccc(C(=O)N3C(C)CCCC3C)cc2)CC1", "note": "(configuration not stated)", "AC50": "> 26 µM (inactive)"}
{"smiles": "C#CCN(C(=O)c1cc(COc2cccc(C(F)(F)F)c2)on1)C1CCCCC1", "AC50": "> 26 µM (inactive)"}
{"smiles": "Cc1cc(C)c2nc(NNC(=O)c3ccc(S(=O)(=O)N4CC(C)CC(C)C4)cc3)sc2c1", "note": "(configuration not stated)", "AC50": "> 26 µM (inactive)"}
{"smiles": "Cc1cc(C(C)(C)C)cc(C)c1C[n+]1ccc2ccccc2c1", "AC50": "> 26 µM (inactive)"}
{"smiles": "C=C(C(=O)c1ccccc1)C(C)C(=C)C(=O)c1ccccc1", "AC50": "> 26 µM (inactive)"}
{"smiles": "COc1cccc(CNCCc2c[nH]c3ccccc23)c1OCc1ccccc1F", "AC50": "> 26 µM (inactive)"}
{"smiles": "CCCCCc1ccc(OCCCC[n+]2ccc(C)cc2)c(CCCCC)c1", "AC50": "> 26 µM (inactive)"}
{"smiles": "Cc1cccc(NC(=S)N/N=C/c2ccc([N+](=O)[O-])s2)c1", "AC50": "> 26 µM (inactive)"}
{"smiles": "Cc1ccc2ccc3ccc(C)nc3c2n1", "AC50": "> 26 µM (inactive)"}
{"smiles": "Cc1ccnc2c1ccc1c(C)ccnc12", "AC50": "> 26 µM (inactive)"}
{"smiles": "COc1ccc(C2/C=C\\CN(C(=O)c3ccc(C)cc3)[C@H](Cc3ccccc3)C(=O)N2Cc2ccc(F)cc2)cc1", "note": "(some centres not stated)", "AC50": "> 26 µM (inactive)"}
{"smiles": "CC(C)(C)OC(=O)N1CCC(CNC(=O)c2cccs2)CC1", "AC50": "> 26 µM (inactive)"}
{"smiles": "COc1ccc(-c2sc3ccccc3c2-c2ccc(OCCN(C)C)cc2)cc1", "AC50": "> 12 µM (inactive)"}
{"smiles": "Cn1nc(CC(=O)Nc2ccc3c(c2)OCCO3)c2ccccc2c1=O", "AC50": "> 26 µM (inactive)"}
{"smiles": "CN(C)CCCN(C(=O)COc1ccc(Cl)cc1)c1nc2cc3c(cc2s1)OCO3", "AC50": "> 26 µM (inactive)"}
{"smiles": "CC1CCCCC1NS(=O)(=O)c1ccc(S(=O)(=O)NCc2ccncc2)cc1", "note": "(configuration not stated)", "AC50": "> 26 µM (inactive)"}
{"smiles": "C=CC(C)(C)c1c(O)c(CC=C(C)C)c(O)c2c(=O)c3ccc(O)c(O)c3oc12", "AC50": "> 26 µM (inactive)"}
{"smiles": "COc1ccc(CN(C)c2ccc(S(=O)(=O)N3CCN(C)CC3)cc2[N+](=O)[O-])cc1OC", "AC50": "> 26 µM (inactive)"}
{"smiles": "Cc1cccc(Cn2nnc3c2C(=O)c2ccccc2C3=O)c1", "AC50": "> 26 µM (inactive)"}
{"smiles": "Cc1cc(N2CCC(C)CC2)nc(NCc2ccccc2)n1", "AC50": "19.6 µM"}
{"smiles": "CCn1c(Cl)c(C=O)s/c1=N\\S(=O)(=O)c1ccccc1", "AC50": "> 26 µM (inactive)"}
{"smiles": "O=C(CSc1nnc(Cn2nnc3ccccc32)o1)N(Cc1ccc(F)cc1)c1ccccc1", "AC50": "> 26 µM (inactive)"}
{"smiles": "CCCOCc1ccc(O)c2ncccc12", "AC50": "> 26 µM (inactive)"}
{"smiles": "CCc1nnc(NC(=O)c2cccc(C(=O)Nc3nnc(CC)s3)n2)s1", "AC50": "> 26 µM (inactive)"}
{"smiles": "COc1ccccc1C(=O)Nc1nc2ccccc2[nH]1", "AC50": "> 26 µM (inactive)"}
{"smiles": "O=C(Nc1cccnc1)c1cccs1", "AC50": "> 26 µM (inactive)"}
{"smiles": "C/C(=N\\NC(=O)c1ccccc1NC(=O)c1ccc(Cl)cc1)c1ccncc1", "AC50": "> 26 µM (inactive)"}
{"smiles": "CCOc1cc(/C=N/Nc2cc(C)nc(-n3nc(C)cc3C)n2)ccc1O", "AC50": "> 26 µM (inactive)"}
{"smiles": "Cc1ccccc1Cn1ccc(=NCc2ccccc2)cc1", "AC50": "> 26 µM (inactive)"}
{"smiles": "COc1ccc2nc(C)cc(N/N=C/c3ccccc3)c2c1", "AC50": "10.1 µM"}
{"smiles": "COCCNC(=O)CSC1=N/C(=C/c2ccc(Cl)c(Cl)c2)C(=O)N1c1ccccc1F", "AC50": "> 26 µM (inactive)"}
{"smiles": "Cc1ccc(-c2csc(NC(=O)c3c(C)noc3C)n2)s1", "AC50": "> 26 µM (inactive)"}
{"smiles": "O=C1C(=O)c2ccccc2-c2ccccc21", "AC50": "> 26 µM (inactive)"}
{"smiles": "O=C(Nc1ccc([N+](=O)[O-])cc1)Nc1ccc(Cl)cc1F", "AC50": "> 26 µM (inactive)"}
{"smiles": "CCN1/C(=C/C=C/c2sc3ccccc3[n+]2CC)Sc2ccccc21", "AC50": "> 26 µM (inactive)"}
{"smiles": "O=C(Nc1cccc(Cl)c1)Nc1nnc(-c2ccncc2)s1", "AC50": "> 26 µM (inactive)"}
{"smiles": "CCCC1(c2ccccc2)NC(=O)N(CC(=O)Nc2cc(C)ccc2OC)C1=O", "note": "(configuration not stated)", "AC50": "> 26 µM (inactive)"}
{"smiles": "Cc1ccccc1Oc1cc(-n2ncc(Cl)c(Cl)c2=O)ncn1", "AC50": "> 26 µM (inactive)"}
{"smiles": "Fc1ccc2nc(Nc3nc4c(F)cc(F)cc4s3)sc2c1", "AC50": "> 26 µM (inactive)"}
{"smiles": "CCOC(=O)C1CCCN(S(=O)(=O)c2ccc(S(=O)(=O)N(CC)CC)cc2)C1", "note": "(configuration not stated)", "AC50": "> 26 µM (inactive)"}
